The values below come from patent US20240368135A1 (VERTEX PHARMACEUTICALS INCORPORATED, priority 2021, published 2024).

human NaV 1.8, sequence (Q9Y5Y9 126-399 limits assumed): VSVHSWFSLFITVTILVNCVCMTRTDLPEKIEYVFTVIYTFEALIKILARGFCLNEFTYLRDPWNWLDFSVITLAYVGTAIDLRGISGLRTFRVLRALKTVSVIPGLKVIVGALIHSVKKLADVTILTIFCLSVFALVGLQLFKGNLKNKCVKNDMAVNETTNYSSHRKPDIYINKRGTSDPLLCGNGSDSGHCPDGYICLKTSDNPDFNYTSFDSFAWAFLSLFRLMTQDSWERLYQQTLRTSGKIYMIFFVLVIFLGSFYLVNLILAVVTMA
human NaV 1.8, sequence (Q9Y5Y9 660-890 limits assumed): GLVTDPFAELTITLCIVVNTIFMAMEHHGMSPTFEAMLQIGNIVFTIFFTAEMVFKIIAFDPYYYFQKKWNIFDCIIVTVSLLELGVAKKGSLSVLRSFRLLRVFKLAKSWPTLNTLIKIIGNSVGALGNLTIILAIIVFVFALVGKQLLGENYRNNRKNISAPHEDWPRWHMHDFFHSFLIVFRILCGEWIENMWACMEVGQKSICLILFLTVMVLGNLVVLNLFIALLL
human NaV 1.8, sequence (Q9Y5Y9 1148-1722 limits assumed): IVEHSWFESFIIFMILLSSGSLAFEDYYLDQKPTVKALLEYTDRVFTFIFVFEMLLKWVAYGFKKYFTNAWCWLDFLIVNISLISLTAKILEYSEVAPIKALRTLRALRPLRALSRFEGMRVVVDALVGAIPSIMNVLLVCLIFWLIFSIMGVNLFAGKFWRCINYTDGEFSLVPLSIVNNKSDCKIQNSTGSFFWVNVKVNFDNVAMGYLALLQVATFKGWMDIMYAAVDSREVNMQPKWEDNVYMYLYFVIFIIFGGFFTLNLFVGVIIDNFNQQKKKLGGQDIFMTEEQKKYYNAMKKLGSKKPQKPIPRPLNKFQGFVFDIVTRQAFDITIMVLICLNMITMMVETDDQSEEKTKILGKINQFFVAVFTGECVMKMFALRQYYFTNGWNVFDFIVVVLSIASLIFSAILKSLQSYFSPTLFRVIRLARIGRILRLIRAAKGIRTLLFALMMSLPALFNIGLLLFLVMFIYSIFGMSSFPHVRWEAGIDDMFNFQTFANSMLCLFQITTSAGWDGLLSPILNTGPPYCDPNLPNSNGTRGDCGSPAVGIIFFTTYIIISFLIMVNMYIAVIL

The first test has as its target human NaV 1.8 (Homo sapiens, UniProt Q9Y5Y9). Kind of test: E-VIPR assay detecting and measuring NaV inhibition properties. The class given is cell-based. The note with it: HEK cells expressing truncated human NaV 1.8; in the presence of human serum (compound numbers followed by *); read-out: IC50 in the E-VIPR Assay, performed in the presence of human serum. A digest of the protocol: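 HEK cells expressing truncated, fully active human NaV1.8, with KIR2.1 BacMam co-transduction, were loaded with CC2-DMPE/DiSBAC6(3) voltage-sensing dyes for 20 min at room temperature. Compounds were tested in 11-point 3-fold dilutions (300 nM top final), optionally with 25% human serum, under electrical stimulation with FRET read-out.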
As for `COc1c([C@@H]2C[C@](C)(C(F)(F)F)O[C@H]2C(=O)Nc2ccnc([C@H](O)[C@@H](C)O)c2)ccc(F)c1F` (stereo in doubt) [Compound 699, rel-(2R,3S,5R)-3-(3,4-difluoro-2-methoxyphenyl)-N-(2-((1S,2R)-1,2-dihydroxypropyl)pyridin-4-yl)-5-methyl-5-(trifluoromethyl)tetrahydrofuran-2-carboxamide], the half-maximal inhibitory concentration (IC50) was in the range of 10 to 100 nM. As for `COc1c([C@H]2[C@H](C(=O)Nc3cc(C(O)CO)ncc3F)O[C@@](C)(C(F)(F)F)[C@H]2C)ccc(F)c1C` (single isomer, unassigned) [Compound 140], the IC50 was in the range of 10 to 100 nM. On the same count and under the same terms, under `COc1c([C@H]2C[C@@](C)(C(F)(F)F)O[C@@H]2C(=O)Nc2ccnc([C@H](O)CO)c2)ccc(F)c1C` (single isomer, unassigned) [Compound 703] stands not below 1000 nM; under `C[C@@H]1[C@H](c2ccc(F)c(F)c2OC(F)F)[C@@H](C(=O)Nc2ccc(=O)n(C)c2)O[C@]1(C)C(F)(F)F` (single isomer, unassigned) [Compound 67], not below 1000 nM.

The test is the same for the next values; noted with them: HEK cells expressing truncated human NaV 1.8; no human serum; read-out: IC50 in the E-VIPR Assay.
In the case of `C[C@H]1[C@@H](c2ccc(F)c(F)c2OCCO)[C@H](C(=O)Nc2ccn(C)c(=O)c2)O[C@@]1(C)C(F)(F)F` [Compound 541, (2R,3S,4S,5R)-3-(3,4-difluoro-2-(2-hydroxyethoxy)phenyl)-4,5-dimethyl-N-(1-methyl-2-oxo-1,2-dihydropyridin-4-yl)-5-(trifluoromethyl)tetrahydrofuran-2-carboxamide], the IC50 lay in the range of 10 to 100 nM. Take `C[C@H]1[C@@H](c2ccc(F)c(F)c2OC(F)F)[C@H](C(=O)Nc2ccn3nnnc3c2)O[C@@]1(C)C(F)(F)F` (single isomer, unassigned) [Compound 80]: the half-maximal inhibitory concentration (IC50) is less than 10 nM. As for `COc1c(C2C(C(=O)Nc3cccnc3)OC(C)(C(F)(F)F)C2C)ccc(F)c1F` (single isomer, unassigned) [Compound 30, 3-(3,4-difluoro-2-methoxy-phenyl)-4,5-dimethyl-N-(3-pyridyl)-5-(trifluoromethyl)tetrahydrofuran-2-carboxamide], the IC50 was less than 10 nM. For the compound `COc1c([C@H]2[C@H](C(=O)Nc3ccnc(C4(N)COC4)c3)O[C@@](C)(C(F)(F)F)[C@H]2C)ccc(F)c1F` [Compound 340, (2R,3S,4S,5R)-N-(2-(3-aminooxetan-3-yl)pyridin-4-yl)-3-(3,4-difluoro-2-methoxyphenyl)-4,5-dimethyl-5-(trifluoromethyl)-tetrahydrofuran-2-carboxamide], the IC50 is less than 10 nM. On to `Cc1nocc1NC(=O)[C@@H]1O[C@@](C)(C(F)(F)F)[C@@H](C)[C@H]1c1ccc(F)c(F)c1OCCNC1COC1` [Compound 631, (2R,3S,4S,5R)-3-(3,4-difluoro-2-(2-(oxetan-3-ylamino)ethoxy)phenyl)-4,5-dimethyl-N-(3-methylisoxazol-4-yl)-5-(trifluoromethyl)tetrahydrofuran-2-carboxamide], for which the IC50 lay within 10 to 100 nM.

Consider `Cc1ncc(NC(=O)[C@@H]2O[C@@](C)(C(F)(F)F)[C@@H](C)[C@H]2c2ccc(F)c(F)c2OCCO)c(C)n1` [Compound 543, (2R,3S,4S,5R)-3-(3,4-difluoro-2-(2-hydroxyethoxy)phenyl)-N-(2,4-dimethylpyrimidin-5-yl)-4,5-dimethyl-5-(trifluoromethyl)tetrahydrofuran-2-carboxamide], for which the IC50 was not below 1000 nM.

For `COc1c([C@H]2[C@H](C(=O)Nc3ccc(S(N)(=O)=O)nc3)O[C@@](C)(C(F)(F)F)[C@H]2C)ccc(F)c1F` [Compound 235, (2R,3S,4S,5R)-3-(3,4-difluoro-2-methoxy-phenyl)-4,5-dimethyl-N-(6-sulfamoyl-3-pyridyl)-5-(trifluoromethyl)tetrahydrofuran-2-carboxamide], the half-inhibitory concentration (IC50) lay in the range of 10 to 100 nM. `COc1c([C@H]2[C@H](C(=O)Nc3cnnc(C(C)(C)O)c3)O[C@@](C)(C(F)(F)F)[C@H]2C)ccc(F)c1F` [Compound 219, (2R,3S,4S,5R)-3-(3,4-difluoro-2-methoxy-phenyl)-N-[6-(1-hydroxy-1-methyl-ethyl)pyridazin-4-yl]-4,5-dimethyl-5-(trifluoromethyl)tetrahydrofuran-2-carboxamide]: the IC50 is less than 10 nM. As to `COc1ccc(NC(=O)[C@@H]2O[C@@](C)(C(F)(F)F)[C@@H](C)[C@H]2c2ccc(F)c(C(F)F)c2OC)cn1` (single isomer, unassigned) [Compound 167], the 50% inhibitory concentration (IC50) lay within 10 to 100 nM. Same read-out and setting: under `COc1c([C@H]2[C@H](C(=O)Nc3ccc(CC4CCOC4)nc3)O[C@@](C)(C(F)(F)F)[C@H]2C)ccc(F)c1F` (stereo partly drawn) [Compound 392, (2R,3S,4S,5R)-3-(3,4-difluoro-2-methoxyphenyl)-4,5-dimethyl-N-(6-((tetrahydrofuran-3-yl)methyl)pyridin-3-yl)-5-(trifluoromethyl)-tetrahydrofuran-2-carboxamide] stands 100 to 1000 nM.

`C[C@H]1[C@@H](c2ccc(F)c(F)c2OC(F)F)[C@H](C(=O)Nc2ccc(CC(C)(C)O)nc2)O[C@@]1(C)C(F)(F)F` (single isomer, unassigned) [Compound 462]: the IC50 was 100 to 1000 nM. The same measure, in the same setting: under `C[C@H]1[C@@H](c2ccc(F)c(F)c2OCCN2C[C@H]3COC[C@H]3C2)[C@H](C(=O)Nc2cc(C(N)=O)nn2C)O[C@@]1(C)C(F)(F)F` [Compound 597, 5-[[(2R,3S,4S,5R)-3-[2-[2-[(3aS,6aR)-1,3,3a,4,6,6a-hexahydrofuro[3,4-c]pyrrol-5-yl]ethoxy]-3,4-difluoro-phenyl]-4,5-dimethyl-5-(trifluoromethyl)tetrahydrofuran-2-carbonyl]amino]-1-methyl-pyrazole-3-carboxamide] stands 10 to 100 nM. On the same count and under the same terms, under `COc1c([C@H]2[C@H](C(=O)Nc3ccc(S(C)(=N)=O)nc3)O[C@@](C)(C(F)(F)F)[C@H]2C)ccc(F)c1F` (single isomer, unassigned) [Compound 337, rel-(2R*,3S*,4S*,5R*)-3-(3,4-difluoro-2-methoxyphenyl)-4,5-dimethyl-N-(6-(S-methylsulfonimidoyl)-pyridin-3-yl)-5-(trifluoromethyl)-tetrahydrofuran-2-carboxamide] stands 10 to 100 nM; under `COc1c([C@H]2[C@H](C(=O)Nc3ccnc(N4C(=O)CNC[C@@H]4C)c3)O[C@@](C)(C(F)(F)F)[C@H]2C)ccc(F)c1F` [Compound 479, (2R,3S,4S,5R)-3-(3,4-difluoro-2-methoxyphenyl)-4,5-dimethyl-N-(2-((S)-2-methyl-6-oxopiperazin-1-yl)pyridin-4-yl)-5-(trifluoromethyl)tetrahydrofuran-2-carboxamide], 10 to 100 nM; under `Cc1nn(C(F)F)cc1NC(=O)[C@@H]1O[C@@](C)(C(F)(F)F)[C@@H](C)[C@H]1c1ccc(F)c(F)c1OCCN1CC2(COC2)C1` [Compound 598, (2R,3S,4S,5R)-3-(2-(2-(2-oxa-6-azaspiro[3.3]heptan-6-yl)ethoxy)-3,4-difluorophenyl)-N-(1-(difluoromethyl)-3-methyl-1H-pyrazol-4-yl)-4,5-dimethyl-5-(trifluoromethyl)tetrahydrofuran-2-carboxamide], 10 to 100 nM. Same read-out and setting: under `COc1c(C2C(C(=O)Nc3ccnc(S(C)(=N)=O)c3)OC(C)(C(F)(F)F)C2C)ccc(F)c1F` (single isomer, unassigned) [Compound 56, 3-(3,4-difluoro-2-methoxy-phenyl)-4,5-dimethyl-N-[2-(methylsulfonimidoyl)-4-pyridyl]-5-(trifluoromethyl)tetrahydrofuran-2-carboxamide] stands 100 to 1000 nM; under `COc1c([C@H]2[C@H](C(=O)NC3CCCN(C(C)=O)C3)O[C@@](C)(C(F)(F)F)[C@H]2C)ccc(F)c1F` (stereo partly drawn) [Compound 274, (2R,3S,4S,5R)-N-(1-acetylpiperidin-3-yl)-3-(3,4-difluoro-2-methoxyphenyl)-4,5-dimethyl-5-(trifluoromethyl)tetrahydrofuran-2-carboxamide], not below 1000 nM; under `COc1c([C@H]2[C@H](C(=O)Nc3ccc4cnnn4c3)O[C@@](C)(C(F)(F)F)[C@H]2C)ccc(F)c1F` [Compound 329, (2R,3S,4S,5R)-N-([1,2,3]triazolo[1,5-a]pyridin-6-yl)-3-(3,4-difluoro-2-methoxyphenyl)-4,5-dimethyl-5-(trifluoromethyl)-tetrahydrofuran-2-carboxamide], less than 10 nM. Consider `COc1c([C@H]2[C@H](C(=O)Nc3ccc(C#CCO)nc3)O[C@@](C)(C(F)(F)F)[C@H]2C)ccc(F)c1F` [Compound 403, (2R,3S,4S,5R)-3-(3,4-difluoro-2-methoxyphenyl)-N-(6-(3-hydroxyprop-1-yn-1-yl)pyridin-3-yl)-4,5-dimethyl-5-(trifluoromethyl)-tetrahydrofuran-2-carboxamide], for which the IC50 fell in the range of 10 to 100 nM. In the case of `CCOc1c([C@H]2[C@H](C(=O)Nc3ccn4nnnc4c3)O[C@@](C)(C(F)(F)F)[C@H]2C)ccc(F)c1C` (stereo in doubt) [Compound 121, rac-(2R,3S,4S,5R)-3-(2-ethoxy-4-fluoro-3-methylphenyl)-4,5-dimethyl-N-(tetrazolo[1,5-a]pyridin-7-yl)-5-(trifluoromethyl)tetrahydrofuran-2-carboxamide], the IC50 was less than 10 nM. The same measure, in the same setting: under `COc1c([C@H]2[C@H](C(=O)Nc3ccnc(N4CCN(C)[C@H](C)C4=O)c3)O[C@@](C)(C(F)(F)F)[C@H]2C)ccc(F)c1F` [Compound 475, (2R,3S,4S,5R)-3-(3,4-difluoro-2-methoxyphenyl)-N-(2-((R)-3,4-dimethyl-2-oxopiperazin-1-yl)pyridin-4-yl)-4,5-dimethyl-5-(trifluoromethyl)tetrahydrofuran-2-carboxamide] stands 10 to 100 nM; under `C[C@H]1[C@@H](c2ccc(F)c(F)c2O[C@H]2C[C@@H](O)C2)[C@H](C(=O)Nc2ccn(C)c(=O)c2)O[C@@]1(C)C(F)(F)F` [Compound 663, (2R,3S,4S,5R)-3-(3,4-difluoro-2-((1S,3R)-3-hydroxycyclobutoxy)phenyl)-4,5-dimethyl-N-(1-methyl-2-oxo-1,2-dihydropyridin-4-yl)-5-(trifluoromethyl)tetrahydrofuran-2-carboxamide], 10 to 100 nM.

A word on the IC50: it is the point on the concentration scale where inhibition reaches its midpoint.
